{"source": "patent US20200087340A1", "about": "“LIF/LIFR ANTAGONIST IN ONCOLOGY AND NONMALIGNANT DISEASES” (Evestra, Inc., priority 2018, published 2020)", "key": {"[1]": {"tested_on": "RPMI-8226", "experiment": "NCI-60 screening, Leukemia", "assay_type": "cell-based, human"}, "[2]": {"tested_on": "SK-MEL-5", "experiment": "NCI-60 screening, Melanoma", "assay_type": "cell-based, human"}, "[3]": {"tested_on": "MDA-MB-231 ATCC", "experiment": "NCI-60 screening, Breast Cancer", "assay_type": "cell-based, human"}, "[4]": {"tested_on": "KM12", "experiment": "NCI-60 screening, Colon Cancer", "assay_type": "cell-based, human"}, "[5]": {"tested_on": "COLO 205", "experiment": "NCI-60 screening, Colon Cancer", "assay_type": "cell-based, human"}, "[6]": {"tested_on": "NCI-H332M", "experiment": "NCI-60 screening, Non-Small Cell Lung Cancer", "assay_type": "cell-based, human"}, "[7]": {"tested_on": "SK-OV-3", "experiment": "NCI-60 screening, Ovarian Cancer", "assay_type": "cell-based, human"}, "[8]": {"tested_on": "SNB-19", "experiment": "NCI-60 screening, CNS Cancer", "assay_type": "cell-based, human"}, "[9]": {"tested_on": "A498", "experiment": "NCI-60 screening, Renal Cancer", "assay_type": "cell-based, human"}, "[10]": {"tested_on": "IGROV1 (Ovarian) Xenograft", "experiment": "Tumor xenograft study, IGROV1", "assay_type": "in vivo, mice", "experimental": "Uniform suspensions of human breast cancer MDA-MB-231 and human ovarian cancer IGROV1 cells (2×10^6) in 100 μL (0.02 carboxymethyl cellulose in phosphate buffered saline) were injected subcutaneously into the right and left flanks of 4- to 5-week-old female athymic nude mice (Charles River Laboratories). After 10 days, when the tumor […] reaches 100 mm^3, the mice were randomly allocated to 3 groups of each containing 6 animals. […] All drug was suspended in PBS followed by sonication (15 seconds with an intermittent interval of 5 seconds) for 1 minute. Tumors were allowed to reach palpability before drug intervention. Tumor size was measured every 3 days using digital Vernier Calipers and tumor volume was calculated using the ellipsoid formula [D×(d2)]/2, where D is the large diameter of the tumor and d represents the small diameter. On day 31, the mice were euthanized and tumors were harvested for protein and gene expression studies. […] FIG. 6B depicts a graph of tumor volume vs. time for the administration of EC300 at 2.5 mg/kg twice weekly in the MDA-MB-231 (TNBC) Xenograft. […] FIG. 7 depicts a graph of tumor volume vs. time for the administration of EC300 at 5 mg/kg 5 days per week in the IGROV1 (Ovarian) Xenograft. […] STAT3 phosphorylation is reduced in tumors that underwent treatment compared to control which is an indication of LIF downstream target."}, "[11]": {"tested_on": "SN12C", "experiment": "NCI-60 screening, Renal Cancer", "assay_type": "cell-based, human"}, "[12]": {"tested_on": "SMAD", "experiment": "Phosphorylation of SMAD", "assay_type": "cell-based", "conditions": "thorough blocking TGF-beta"}, "[13]": {"tested_on": "BT-549", "experiment": "NCI-60 screening, Breast Cancer", "assay_type": "cell-based, human"}, "[14]": {"tested_on": "786-0", "experiment": "NCI-60 screening, Renal Cancer", "assay_type": "cell-based, human"}, "[15]": {"tested_on": "MCF7", "experiment": "NCI-60 screening, Breast Cancer", "assay_type": "cell-based, human"}, "[16]": {"tested_on": "Patient derived tumor (melanoma)", "experiment": "Immunohistochemistry analysis of treated patient derived tumor", "assay_type": "cell-based, human", "conditions": "10 nM and 1 uM for 5 days", "experimental": "Patient derived tumor (melanoma) was treated with the compounds at 10 nM and 1 uM for 5 days in RPMI medium and harvested on day 6 using established protocol and immunohistochemistry was performed for different antibodies including p53, LIF, MDM2, pSTAT3, Ki67."}, "[17]": {"tested_on": "HOP-92", "experiment": "NCI-60 screening, Non-Small Cell Lung Cancer", "assay_type": "cell-based, human"}, "[18]": {"tested_on": "HOP-62", "experiment": "NCI-60 screening, Non-Small Cell Lung Cancer", "assay_type": "cell-based, human"}, "[19]": {"tested_on": "NCI-H460", "experiment": "NCI-60 screening, Non-Small Cell Lung Cancer", "assay_type": "cell-based, human"}, "[20]": {"tested_on": "SK-MEL-28", "experiment": "NCI-60 screening, Melanoma", "assay_type": "cell-based, human"}, "[21]": {"tested_on": "M14", "experiment": "NCI-60 screening, Melanoma", "assay_type": "cell-based, human"}, "[22]": {"tested_on": "UACC-62", "experiment": "NCI-60 screening, Melanoma", "assay_type": "cell-based, human"}, "[23]": {"tested_on": "DU-145", "experiment": "NCI-60 screening, Prostate Cancer", "assay_type": "cell-based, human"}, "[24]": {"tested_on": "HS 578T", "experiment": "NCI-60 screening, Breast Cancer", "assay_type": "cell-based, human"}, "[25]": {"tested_on": "K-562", "experiment": "NCI-60 screening, Leukemia", "assay_type": "cell-based, human"}, "[26]": {"tested_on": "HCC-2998", "experiment": "NCI-60 screening, Colon Cancer", "assay_type": "cell-based, human"}, "[27]": {"tested_on": "HCT-15", "experiment": "NCI-60 screening, Colon Cancer", "assay_type": "cell-based, human"}, "[28]": {"tested_on": "SW-620", "experiment": "NCI-60 screening, Colon Cancer", "assay_type": "cell-based, human"}, "[29]": {"tested_on": "RXF 393", "experiment": "NCI-60 screening, Renal Cancer", "assay_type": "cell-based, human"}, "[30]": {"tested_on": "OVCAR-8", "experiment": "NCI-60 screening, Ovarian Cancer", "assay_type": "cell-based, human"}, "[31]": {"tested_on": "MALME-3M", "experiment": "NCI-60 screening, Melanoma", "assay_type": "cell-based, human"}, "[32]": {"tested_on": "T47D cells", "experiment": "Soft agar colony formation assay", "assay_type": "cell-based, human", "conditions": "100 nM concentration", "experimental": "Colonies of cancer cells formed in soft agar in the presence and absence of the testing compounds is a standard assay to interpret in-vitro tumorigenic potential in the basal layer. Agar was prepared by mixing 1% DNA grade agar melted and cooled to 40° C. with an equal volume of (2×) Dulbecco's Modified Eagle's Medium (DMEM) to obtain 0.5% agar that was dispersed in a 6-well plate and allowed to solidify. A total of 0.6% agar was prepared in RPMI medium and mixed together with T47D cells (0.5×10^6 cells/mL) and immediately plated on the basal layer in the presence or absence of testing compounds. The cultures were incubated at 37° C. in a CO2 incubator for 2 weeks, and colonies were stained with 0.005% crystal violet and observed under a light microscope."}, "[33]": {"tested_on": "HT29", "experiment": "NCI-60 screening, Colon Cancer", "assay_type": "cell-based, human"}, "[34]": {"tested_on": "SK-MEL-2", "experiment": "NCI-60 screening, Melanoma", "assay_type": "cell-based, human"}}}
{"smiles": "C#CC(F)(F)[C@]1(O)CCC2C3CCC4=CC(=O)CCC4=C3C(c3ccc(C4CC4)cc3)C[C@@]21C", "note": "(stereo partly drawn) [EC330, 17α-(1,1-difluoro-2-propyn-1-yl)-17β-hydroxy-11β-[4-p-(cyclopropyl)phenyl]estra-4,9-dien-3-one]", "values": [{"measurement": "TGI (log10TGI)", "setting": "[1]", "value": "−6.24"}, {"measurement": "TGI (log10TGI)", "setting": "[2]", "value": "−4.79"}, {"measurement": "TGI (log10TGI)", "setting": "[3]", "value": "−5.46"}, {"measurement": "TGI (log10TGI)", "setting": "[4]", "value": "−5.91"}, {"measurement": "TGI (log10TGI)", "setting": "[5]", "value": "−5.53"}, {"measurement": "TGI (log10TGI)", "setting": "[6]", "value": ">−4.00"}, {"measurement": "TGI (log10TGI)", "setting": "[7]", "value": "−6.55"}, {"measurement": "TGI (log10TGI)", "setting": "[8]", "value": ">−4.00"}, {"measurement": "TGI (log10TGI)", "setting": "[9]", "value": "−6.01"}, {"measurement": "antitumor activity", "setting": "[10]; 5 mg/kg (5 days per week), 4 weeks, IGROV1 xenograft", "value": "potent antitumor activity"}, {"measurement": "apoptosis in xenograft tumors", "setting": "[10]; IGR-OV1 ovarian cancer xenograft tumors", "value": "induced apoptosis dose dependently"}, {"measurement": "tumor growth", "setting": "[10]; ovarian cancer model", "value": "significantly reduced"}, {"measurement": "STAT3 phosphorylation in tumors", "setting": "[10]; treated compared to control", "value": "reduced"}, {"measurement": "TGI (log10TGI)", "setting": "[11]", "value": "−4.58"}, {"measurement": "phosphorylation of SMAD", "setting": "[12]", "value": "indirectly diminish the phosphorylation of SMAD"}, {"measurement": "TGI (log10TGI)", "setting": "[13]", "value": "−5.30"}, {"measurement": "TGI (log10TGI)", "setting": "[14]", "value": "<−8.00"}, {"measurement": "TGI (log10TGI)", "setting": "[15]", "value": "−4.96"}, {"measurement": "apoptosis, p53, MDM2, LIF mediated STAT3 phosphorylation (immunohistochemistry)", "setting": "[16]", "value": "induce apoptosis and restore p53 by inhibiting MDM2 and LIF mediated STAT3 phosphorylation"}, {"measurement": "TGI (log10TGI)", "setting": "[17]", "value": "<−8.00"}, {"measurement": "TGI (log10TGI)", "setting": "[18]", "value": "−6.79"}, {"measurement": "TGI (log10TGI)", "setting": "[19]", "value": "−4.80"}, {"measurement": "TGI (log10TGI)", "setting": "[20]", "value": "−5.43"}, {"measurement": "TGI (log10TGI)", "setting": "[21]", "value": "−4.45"}, {"measurement": "TGI (log10TGI)", "setting": "[22]", "value": "−5.27"}, {"measurement": "TGI (log10TGI)", "setting": "[23]", "value": "−4.75"}, {"measurement": "TGI (log10TGI)", "setting": "[24]", "value": "−4.99"}, {"measurement": "TGI (log10TGI)", "setting": "[25]", "value": ">−4.00"}, {"measurement": "TGI (log10TGI)", "setting": "[26]", "value": "−4.37"}, {"measurement": "TGI (log10TGI)", "setting": "[27]", "value": ">−4.00"}, {"measurement": "TGI (log10TGI)", "setting": "[28]", "value": "−4.79"}, {"measurement": "TGI (log10TGI)", "setting": "[29]", "value": "−5.09"}, {"measurement": "TGI (log10TGI)", "setting": "[30]", "value": "−4.43"}, {"measurement": "TGI (log10TGI)", "setting": "[31]", "value": "<−8.00"}, {"measurement": "colonies formed", "setting": "[32]", "value": "complete inhibition or no colonies were formed"}, {"measurement": "TGI (log10TGI)", "setting": "[33]", "value": "−6.72"}, {"measurement": "TGI (log10TGI)", "setting": "[34]", "value": "−5.19"}]}
